Here are results for 1 compound from paper PMC5159850, “An adenylyl cyclase with a phosphodiesterase domain in basal plants with a motile sperm system” (Scientific Reports, 2016).

The test addresses T1, His-MpCAPE-PDE (Marchantia polymorpha, UniProt A0A1V1FXL5).
T1 construct: gene CAPE; N-terminal PDE domain 101-479 of 1610-residue MpCAPE; 6xHis and T7 tags (pET28a); E. coli Rosetta2(DE3)pLysS host; partially purified on Ni column
As to the kind of experiment: reverse-phase HPLC of AMP or GMP formed, […] nm. It counts as biochemical. The note with it: 0.5 mM cGMP, 0.5 mM MgCl2, MnCl2 or FeCl2, Tris-HCl pH 8.0, 37 °C, 20 min; partially purified protein.

T1 sequence (A0A1V1FXL5 entry or part of it): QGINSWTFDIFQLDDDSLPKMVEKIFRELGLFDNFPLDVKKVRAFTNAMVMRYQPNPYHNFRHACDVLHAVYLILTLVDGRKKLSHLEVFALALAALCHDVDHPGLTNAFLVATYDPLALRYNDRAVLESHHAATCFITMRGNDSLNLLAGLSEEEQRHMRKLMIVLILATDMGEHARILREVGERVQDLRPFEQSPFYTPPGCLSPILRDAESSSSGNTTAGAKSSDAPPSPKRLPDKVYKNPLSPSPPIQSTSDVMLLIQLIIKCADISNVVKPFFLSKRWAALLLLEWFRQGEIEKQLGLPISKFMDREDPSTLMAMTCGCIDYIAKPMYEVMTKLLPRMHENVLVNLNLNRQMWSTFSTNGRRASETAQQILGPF

As to `Nc1nc2c(ncn2[C@@H]2O[C@@H]3COP(=O)(O)O[C@H]3[C@H]2O)c(=O)[nH]1` [cGMP], the “reverse-phase HPLC of AMP or GMP formed, 259 nm” value is “The result showed that His-MpCAPE-PDE hydrolyzed both cAMP and cGMP”.
